For orientation: LD50 means the dose expected to kill half of the subjects tested.

The text below walks through data of patent US5023079A, “Heptaene V-28-3 antibiotic derivative” (Ajinomoto Co., Inc., priority 1987, dated 1991).

The subject of data set [1] is Candida albicans (strain C3). Nature of the data set: Experimental (mouse) candidiasis, survival ratio. The class given is in vivo, Candida albicans (strain C3) in male ICR-strain mice. The note with it: 1 hr after infection, day-8, groups of 10 mice. The procedure:
Male ICR-strain mice, weighing 20-22 g, were used in groups of 10. A 0.2 ml cell suspension of Candida albicans (strain C3) was injected IV via the tail vein, inoculum size being 2.5×10^7 cells/mouse. The test drugs (0.2 ml) were administered IV via the tail vein once at 1 hr after the infection.
The therapeutic effect of the test drugs was expressed as the survival ratio at day-8 after infection.

Data set [2] is described as follows: Acute toxicity (LD50, IV). The note with it: mouse, in vivo, male ICR-strain mice, survivors at day-5, read-out: LD50 (50% lethal dose). The procedure:
An acute toxicity study was carried out with male ICR-strain mice. LD50 (50% lethal dose) was calculated on the basis of the number of survivors at day-5 after IV administration of the drugs.

For `C[C@@H]1[C@H](O)[C@@H](C)/C=C/C=C/C=C/C=C/C=C/C=C/C=C/[C@H](O[C@@H]2O[C@H](C)[C@@H](O)[C@H](N)[C@@H]2O)C[C@@H]2O[C@](O)(C[C@@H](O)C[C@@H](O)[C@H](O)CC[C@@H](O)C[C@@H](O)CC(=O)O[C@H]1C)C[C@H](O)[C@H]2C(=O)O` [amphotericin B], the Survival ratio in data set [1] (0.125 mg/kg IV once) worked out at 0%; in data set [1] (0.25 mg/kg IV once) it was 70%; in data set [1] (0.5 mg/kg IV once) it was 100%. The LD50 at 120 h in data set [2] is 4.1 mg/kg.
